# Patent EP0811615A1, “1-Aryl-5-(substituted alkyl (thio) amido) pyrazoles and their use as pesticides” (RHONE-POULENC AGROCHIMIE, priority 1996, dated 1997)
# How the values were obtained:
# [1] = test system: buckthorn or cotton aphid; test: Buckthorn or cotton aphid foliar spray test; assay type: in vivo, Aphis nasturtii / Aphis gossypii; details: Aphis gossypii; foliar application at 100 ppm; counted after one day (buckthorn aphid) or three days (cotton aphid); read-out: pest mortality BA*/CA
# Experimental: (§1) For mite, aphid, southern armyworm, Mexican bean beetle, and tobacco budworm tests, a solution or suspension was prepared by adding 10 mg of the test compound to a solution of 160 mg of dimethylformamide, 838 mg of acetone, 2 mg of a 3:1 ratio of Triton X-172 : Triton X-152 (respectively, mainly anionic and nonionic low foam emulsifiers which are each anhydrous blends of alkylaryl polyether alcohols with organic sulfonates), and […] of water. The result was a concentration of 100 ppm of the test compound.
# Buckthorn or cotton aphid: Adult and nymphal stages of buckthorn or cotton aphid were reared on potted dwarf nasturtium or cotton plants, respectively. The potted plants (one pot per compound tested) infested with 100-150 aphids, were placed on a revolving turntable and sprayed with 100 ml of the 100 ppm test compound formulation by use of a DeVilbiss spray gun set at 40 psig air pressure. As an untreated control, 100 ml of a water-acetone-DMF-emulsifier solution, containing no test compound, were also sprayed on infested plants. A treated control with a commercial technical compound, malathion or cyhalothrin, formulated in the same manner, was tested as a standard. After spraying, the pots were stored for one day on buckthorn aphid or three days for cotton aphid, after which the dead aphids were counted.
# southern armyworm = test: Southern armyworm foliar spray test on bean plants; assay type: in vivo; details: Spodoptera eridania, 120 h; foliar application at 100 ppm; second instar larvae, held five days; read-out: pest mortality SAW
# Experimental: as §1
# (§2) Southern armyworm: Potted bean plants, were placed on a revolving turntable and sprayed with 100 ml of the 100 ppm test compound formulation by use of a DeVilbiss spray gun set at 40 psig air pressure. As an untreated control, 100 ml of a water-acetone-DMF-emulsifier solution, containing no test compound, were also sprayed on plants. A treated control with a commercial technical compound, either cypermethrin or sulprofos, formulated in the same manner, was tested as a standard. When dry, the leaves were placed in plastic cups lined with moistened filter paper. Five randomly selected second instar southern armyworm larvae were introduced into each cup which was closed and held for five days. Larvae which were unable to move the length of the body, even upon stimulation by prodding, were considered dead.
# Mexican bean beetle = Mexican bean beetle foliar spray test on bean plants; assay type: in vivo; details: Epilachna varivestis, 120 h; foliar application at 100 ppm; second instar larvae, held five days; read-out: pest mortality MBB
# Experimental: as §1
# as §2, with “Mexican bean beetle:” for “Southern armyworm:”, “plants” for “plants,”, “formulation, sufficient to wet the plants to runoff,” for “formulation”, “Mexican bean beetle” for “southern armyworm”
# housefly = test: House fly bait test; assay type: in vivo; details: Musca domestica; bait application at 100 ppm; adult flies, after 24 hours; read-out: pest mortality HF
# Description: For housefly tests, the formulation was initially prepared in a similar manner to the above, but in 16.3 g of water with corresponding adjustment of other components, providing a 200 ppm concentration. Final dilution with an equal volume of a 20% by weight aqueous solution of sucrose provided a 100 ppm concentration of the test compound. When necessary, sonication was provided to insure complete dispersion.
# House fly: Four to six day old adult house flies were reared according to the specifications of the Chemical Specialties Manufacturing Association (Blue Book, McNair-Dorland Co., N.Y. 1954; pages 243-244, 261) under controlled conditions. The flies were immobilized by anesthetizing with carbon dioxide and twenty five immobilized individuals, males and females, were transferred to a cage consisting of a standard food strainer and a wrapping-paper-covered surface. Ten ml of the 100 ppm test compound formulation were added to a soufflé cup containing an absorbent cotton pad. As an untreated control, 10 ml of a water-acetone-DMF-emulsifier-sucrose solution, containing no test compound, were applied in a similar manner. A treated control with a commercial technical compound, malathion, formulated in the same manner, was tested as a standard. The bait cup was introduced inside the food strainer prior to admitting the anesthetized flies.
# tobacco budworm = test: Tobacco budworm foliar spray test on cotton plants; assay type: in vivo; details: Heliothis virescens, 120 h; foliar application at 100 ppm; second instar larvae, held five days; read-out: pest mortality TBW
# Experimental: as §1
# Tobacco budworm: Potted cotton plants were placed on a revolving turntable and sprayed with 100 ml of the 100 ppm test compound formulation by use of a DeVilbiss spray gun set at 40 psig air pressure. As an untreated control, 100 ml of a water-acetone-DMF-emulsifier solution, containing no test compound, were also sprayed on plants. A treated control with a commercial technical compound, either cypermethrin or sulprofos, formulated in the same manner, was tested as a standard. When dry, the leaves were placed in plastic dishes containing a piece of filter paper and a moistened dental wick. One randomly selected second instar tobacco budworm larva was then introduced into each cup which was closed and held for five days. Larvae unable to move the length of their body, even upon stimulation by prodding, were considered dead.
# [2] = test system: southern root-knot nematode; test: Southern root-knot nematode soil test on tomato; assay type: in vivo; parameters: dose or concentration left out as unconfirmed; details: Meloidogyne incognita; Soil Conc. at 21 Kg/ha; second stage juveniles; read-out: pest mortality Nema (J2)
# Experimental: For southern root-knot nematode and systemic tests for southern armyworm, cotton aphid, tobacco budworm and greenbug, a stock solution or suspension was prepared by adding 15 mg of the test compound to 250 mg of dimethylformamide, 1250 mg of acetone and 3 mg of the emulsifier blend referenced above. Water was then added to provide a test compound concentration of 150 ppm. When necessary, sonication was provided to insure complete dispersion.
# Southern root-knot nematode: Infected roots of tomato plants, containing egg masses of southern root-knot nematode, were removed from a stock culture and cleaned of soil by shaking and washing with tap water. The nematode eggs were separated from the root tissue and rinsed with water. Samples of the egg suspension were placed on a fine screen over a receiving bowl, in which the water level was adjusted to be in contact with the screen. From the bowl, juveniles were collected on a fine screen. The bottom of a cone-shaped container was plugged with coarse vermiculite and then filled to within 1.5 cm of the top with about a 200 ml volume of pasteurized soil. Then into a hole made in the center of the soil in the cone was pipetted an aliquot of the 150 ppm test compound formulation. A treated control with a commercial technical compound, fenamifos, formulated in a similar manner, was tested as a standard. As an untreated control, an aliquot of a water-acetone-DMF-emulsifier solution, containing no test compound, was applied in a similar manner. Immediately after treatment of the soil with the test compound there were added to the top of each cone 1000 second stage juvenile southern root-knot nematodes. After 3 days, a single healthy tomato seedling was then transplanted into the cone. The cone, containing the infested soil and tomato seedling, was kept in the greenhouse for 3 weeks. At the termination of the test, […], […]
# twospotted spider mite = test: Twospotted spider mite test; assay type: in vivo; details: Tetranychus urticae, 144 h; 100 ppm in foliar bait tests; read-out: control of mites
# Experimental: Twospotted spider mite: Leaves infested with adult and nymphal stages of the two-spotted spider mite, obtained from a stock culture were placed on the primary leaves of two bean plants growing in a 6 cm. peat pot. A sufficient number of mites (150-200) for testing were transferred to the fresh plants within a period of twenty-four hours. The potted plants (one pot per compound) were placed on a revolving turntable and sprayed, sufficient to wet the plants to runoff, with 100 ml of the 100 ppm test compound formulation by use of a DeVilbiss spray gun set at 40 psig. air pressure. As an untreated control, 100 ml of the water-acetone-DMF-emulsifler solution, containing no test compound, were also sprayed on infested plants. A treated control with a commercial technical compound, either dicofol or hexythiazox, formulated in the same manner, was tested as a standard. The sprayed plants were held for six days, after which a mortality count of motile forms was made.
SMILES,mortality at 100 ppm [1],mortality at 100 ppm (southern armyworm),mortality at 100 ppm (Mexican bean beetle),mortality at 100 ppm (housefly),mortality at 100 ppm (tobacco budworm),mortality [2],mortality at 100 ppm (twospotted spider mite)
CCOCC(=O)Nc1c(SC(F)(F)F)c(C#N)nn1-c1c(Cl)cc(C(F)(F)F)cc1Cl [Compound 2],70 to 100%,70 to 100%,70 to 100%,70 to 100%,70 to 100%,–,–
COCC(=O)Nc1c([S+]([O-])C(F)(F)F)c(C#N)nn1-c1c(Cl)cc(C(F)(F)F)cc1Cl (stereo not drawn) [Compound 7],–,70 to 100%,70 to 100%,70 to 100%,70 to 100%,70 to 100%,–
CCOCC(=O)Nc1c([S+]([O-])C(F)(F)F)c(C#N)nn1-c1c(Cl)cc(C(F)(F)F)cc1Cl (stereo not drawn) [Compound 8],–,70 to 100%,70 to 100%,70 to 100%,70 to 100%,70 to 100%,–
COCCOCC(=O)Nc1c([S+]([O-])C(F)(F)F)c(C#N)nn1-c1c(Cl)cc(C(F)(F)F)cc1Cl (stereo not drawn) [Compound 9],–,70 to 100%,70 to 100%,70 to 100%,70 to 100%,70 to 100%,–
COCC(=O)Nc1c(S(=O)(=O)C(F)(F)F)c(C#N)nn1-c1c(Cl)cc(C(F)(F)F)cc1Cl [Compound 11],–,70 to 100%,70 to 100%,70 to 100%,–,70 to 100%,–
CCOCC(=O)Nc1c(S(=O)(=O)C(F)(F)F)c(C#N)nn1-c1c(Cl)cc(C(F)(F)F)cc1Cl [Compound 12],–,70 to 100%,–,70 to 100%,70 to 100%,70 to 100%,–
COCCOCC(=O)Nc1c(S(=O)(=O)C(F)(F)F)c(C#N)nn1-c1c(Cl)cc(C(F)(F)F)cc1Cl [Compound 13],70 to 100%,70 to 100%,–,–,–,70 to 100%,–
COCC(=O)Nc1c([S+]([O-])C(F)(Cl)Cl)c(C#N)nn1-c1c(Cl)cc(C(F)(F)F)cc1Cl (stereo not drawn) [Compound 17],–,70 to 100%,–,70 to 100%,70 to 100%,70 to 100%,–
CCOCC(=O)Nc1c([S+]([O-])C(F)(Cl)Cl)c(C#N)nn1-c1c(Cl)cc(C(F)(F)F)cc1Cl (stereo not drawn) [Compound 18],–,70 to 100%,70 to 100%,–,70 to 100%,70 to 100%,–
COC(C(=O)Nc1c(SC(F)(F)F)c(C#N)nn1-c1c(Cl)cc(C(F)(F)F)cc1Cl)c1ccccc1 (stereo not drawn) [Compound 22],70 to 100%,70 to 100%,–,70 to 100%,70 to 100%,–,–
COC(C)C(=O)Nc1c(S(=O)(=O)C(F)(F)F)c(C#N)nn1-c1c(Cl)cc(C(F)(F)F)cc1Cl (stereo not drawn) [Compound 25],70 to 100%,70 to 100%,70 to 100%,70 to 100%,–,70 to 100%,–
COC(C)C(=O)Nc1c([S+]([O-])C(F)(Cl)Cl)c(C#N)nn1-c1c(Cl)cc(C(F)(F)F)cc1Cl (stereo not drawn) [Compound 28],–,70 to 100%,70 to 100%,70 to 100%,70 to 100%,70 to 100%,–
N#Cc1nn(-c2c(Cl)cc(C(F)(F)F)cc2Cl)c(NC(=O)CO)c1SC(F)(F)F [Compound 32],–,70 to 100%,–,70 to 100%,–,70 to 100%,–
CCCCCCCOCC(=O)Nc1c(SC(F)(F)F)c(C#N)nn1-c1c(Cl)cc(C(F)(F)F)cc1Cl [Compound 34],–,70 to 100%,–,70 to 100%,–,70 to 100%,–
CCOC(C)C(=O)Nc1c(SC(F)(F)F)c(C#N)nn1-c1c(Cl)cc(C(F)(F)F)cc1Cl (stereo not drawn) [Compound 39],–,70 to 100%,70 to 100%,70 to 100%,–,70 to 100%,–
CCCCOC(C)C(=O)Nc1c(SC(F)(F)F)c(C#N)nn1-c1c(Cl)cc(C(F)(F)F)cc1Cl (stereo not drawn) [Compound 42],–,70 to 100%,–,70 to 100%,–,70 to 100%,–
COCC(=O)Nc1c(SC(F)(Cl)Cl)c(C#N)nn1-c1c(Cl)cc(OC(F)(F)F)cc1Cl [Compound 46],–,70 to 100%,–,70 to 100%,70 to 100%,–,30 to 70%
COC(C)C(=O)Nc1c(SC(F)(Cl)Cl)c(C#N)nn1-c1c(Cl)cc(OC(F)(F)F)cc1Cl (stereo not drawn) [Compound 47],–,70 to 100%,–,70 to 100%,70 to 100%,–,30 to 70%
COCC(=O)Nc1c(S(=O)(=O)C(F)(F)F)c(C#N)nn1-c1ncc(C(F)(F)F)cc1Cl [Compound 50],70 to 100%,70 to 100%,–,70 to 100%,–,70 to 100%,–
